In PMC10088252:

Details: 600 mg QD (n=10)

SMILES: O=C(Nc1ccc(Oc2ccnc3c2CCN3)c(F)c1)c1c[nH]cc(-c2ccc(F)cc2)c1=O
- TRAE Decreased Ccr, any grade: 2 (20.0) n (%)
- TRAE Decreased Ccr, grade 3-4: 0 n (%)
- TRAE Decreased appetite, any grade: 1 (10.0) n (%)
- TRAE Decreased appetite, grade 3-4: 1 (10.0) n (%)
- TRAE Diarrhoea, any grade: 1 (10.0) n (%)
- TRAE Diarrhoea, grade 3-4: 0 n (%)
- TRAE Dizziness, any grade: 0 n (%)
- TRAE Dizziness, grade 3-4: 0 n (%)
- TRAE Dry mouth, any grade: 0 n (%)
- TRAE Dry mouth, grade 3-4: 0 n (%)
- TRAE Dysgeusia, any grade: 5 (50.0) n (%)
- TRAE Dysgeusia, grade 3-4: 1 (10.0) n (%)
- TRAE Dyskinesia, any grade: 1 (10.0) n (%)
- TRAE Dyskinesia, grade 3-4: 1 (10.0) n (%)
- TRAE Dysphonia, any grade: 1 (10.0) n (%)
- TRAE Dysphonia, grade 3-4: 0 n (%)
- TRAE Dyspnoea, any grade: 1 (10.0) n (%)
- TRAE Dyspnoea, grade 3-4: 1 (10.0) n (%)
- TRAE Electrocardiogram QT prolonged, any grade: 0 n (%)
- TRAE Electrocardiogram QT prolonged, grade 3-4: 0 n (%)
- TRAE Elevated ALT, any grade: 3 (30.0) n (%)
- TRAE Elevated ALT, grade 3-4: 0 n (%)
- TRAE Elevated AST, any grade: 1 (10.0) n (%)
- TRAE Elevated AST, grade 3-4: 0 n (%)
- TRAE Elevated D dimer, any grade: 1 (10.0) n (%)
- TRAE Elevated D dimer, grade 3-4: 0 n (%)
- TRAE Elevated GGT, any grade: 0 n (%)
- TRAE Elevated GGT, grade 3-4: 0 n (%)
- TRAE Elevated LDH, any grade: 0 n (%)
- TRAE Elevated LDH, grade 3-4: 0 n (%)
- TRAE Elevated alpha-HBDH, any grade: 0 n (%)
- TRAE Elevated alpha-HBDH, grade 3-4: 0 n (%)
- TRAE Elevated bilirubin, any grade: 2 (20.0) n (%)
- TRAE Elevated bilirubin, grade 3-4: 0 n (%)
- TRAE Elevated blood creatinine, any grade: 1 (10.0) n (%)
- TRAE Elevated blood creatinine, grade 3-4: 0 n (%)
- TRAE Elevated creatine phosphokinase, any grade: 0 n (%)
- TRAE Elevated creatine phosphokinase, grade 3-4: 0 n (%)
- TRAE Elevated serum urea, any grade: 0 n (%)
- TRAE Elevated serum urea, grade 3-4: 0 n (%)
- TRAE Elevated troponin, any grade: 0 n (%)
- TRAE Elevated troponin, grade 3-4: 0 n (%)
- TRAE Genital rash, any grade: 1 (10.0) n (%)
- TRAE Genital rash, grade 3-4: 0 n (%)
- TRAE Haematuria, any grade: 0 n (%)
- TRAE Haematuria, grade 3-4: 0 n (%)
- TRAE Headache, any grade: 0 n (%)
- TRAE Headache, grade 3-4: 0 n (%)
- TRAE Hyperhidrosis, any grade: 0 n (%)
- TRAE Hyperhidrosis, grade 3-4: 0 n (%)
- TRAE Hyperlipidaemia, any grade: 0 n (%)
- TRAE Hyperlipidaemia, grade 3-4: 0 n (%)
- TRAE Hypertension, any grade: 2 (20.0) n (%)
- TRAE Hypertension, grade 3-4: 1 (10.0) n (%)
- TRAE Hypoaesthesia oral, any grade: 0 n (%)
- TRAE Hypoaesthesia oral, grade 3-4: 0 n (%)
- TRAE Hypocalcaemia, any grade: 1 (10.0) n (%)
- TRAE Hypocalcaemia, grade 3-4: 0 n (%)
- TRAE Hypotension, any grade: 0 n (%)
- TRAE Hypotension, grade 3-4: 0 n (%)
- TRAE Insomnia, any grade: 0 n (%)
- TRAE Insomnia, grade 3-4: 0 n (%)
- TRAE Leukopenia, any grade: 1 (10.0) n (%)
- TRAE Leukopenia, grade 3-4: 0 n (%)
- TRAE Nausea, any grade: 0 n (%)
- TRAE Nausea, grade 3-4: 0 n (%)
- TRAE Neuritis, any grade: 2 (20.0) n (%)
- TRAE Neuritis, grade 3-4: 0 n (%)
- TRAE Occult blood, any grade: 1 (10.0) n (%)
- TRAE Occult blood, grade 3-4: 0 n (%)
- TRAE Oedema peripheral, any grade: 1 (10.0) n (%)
- TRAE Oedema peripheral, grade 3-4: 0 n (%)
- TRAE Onycholysis, any grade: 0 n (%)
- TRAE Onycholysis, grade 3-4: 0 n (%)
- TRAE Oropharyngeal pain, any grade: 1 (10.0) n (%)
- TRAE Oropharyngeal pain, grade 3-4: 1 (10.0) n (%)
- TRAE PPE, any grade: 1 (10.0) n (%)
- TRAE PPE, grade 3-4: 0 n (%)
- TRAE Paraesthesia, any grade: 0 n (%)
- TRAE Paraesthesia, grade 3-4: 0 n (%)
- TRAE Proteinuria, any grade: 1 (10.0) n (%)
- TRAE Proteinuria, grade 3-4: 0 n (%)
- TRAE Pruritus, any grade: 0 n (%)
- TRAE Pruritus, grade 3-4: 0 n (%)
